Source: patent US11267845B2, “Inhibitors of CD73-mediated immunosuppression” (ARCUS BIOSCIENCES, INC., priority 2016, dated 2022)

Target: T1, CD73 (Homo sapiens, UniProt P21589)
T1 sequence (P21589 27-549): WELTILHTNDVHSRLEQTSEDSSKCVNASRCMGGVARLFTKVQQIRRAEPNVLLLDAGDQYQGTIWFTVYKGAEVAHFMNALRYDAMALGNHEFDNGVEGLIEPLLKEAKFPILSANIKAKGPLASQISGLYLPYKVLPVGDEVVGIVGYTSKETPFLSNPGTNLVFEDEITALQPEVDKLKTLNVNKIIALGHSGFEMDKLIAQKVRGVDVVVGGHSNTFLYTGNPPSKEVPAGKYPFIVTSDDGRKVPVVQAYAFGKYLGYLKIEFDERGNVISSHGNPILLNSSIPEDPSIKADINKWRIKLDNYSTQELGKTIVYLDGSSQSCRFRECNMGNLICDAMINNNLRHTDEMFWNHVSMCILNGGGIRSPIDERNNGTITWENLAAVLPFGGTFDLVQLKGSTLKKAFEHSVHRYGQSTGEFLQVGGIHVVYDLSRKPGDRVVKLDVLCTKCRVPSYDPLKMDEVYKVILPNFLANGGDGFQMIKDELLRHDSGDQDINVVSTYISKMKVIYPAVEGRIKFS
Assay: CD73 inhibition (Potency: CD73 IC50)
Assay type: biochemical

`Cc1cccc2c1NP(=O)(CC(=O)N(C)C[C@H]1O[C@@H](n3cnc4c(NC5CCCC5)nc(Cl)nc43)[C@H](O)[C@@H]1O)OC2` (stereo partly drawn) [S] and `CN(C[C@H]1O[C@@H](n2cnc3c(NC4CCCC4)nc(Cl)nc32)[C@H](O)[C@@H]1O)C(=O)CP1(=O)Nc2ccccc2CO1` (stereo partly drawn) [R] cannot be ordered by IC50: over 1 µM for the first, over 1 µM for the second.

First: O=C(CP(=O)(O)O)NC[C@H]1O[C@@H](n2cnc3c(NC4CCCC4)nc(Cl)nc32)[C@H](O)[C@@H]1O [A]
Second: CN(C[C@H]1O[C@@H](n2cnc3c(NC4CCCC4)nc(Cl)nc32)[C@H](O)[C@@H]1O)C(=O)CP(=O)(O)O [L]
The IC50 of the first is higher: 0.1 to 1 µM for the first, under 0.1 µM for the second.

`CN(C[C@H]1O[C@@H](n2cnc3c(NC4CCCC4)nc(Cl)nc32)[C@H](O)[C@@H]1O)C(=O)CP(=O)(OCOC(=O)C(C)(C)C)OCOC(=O)C(C)(C)C` [AG] and `CN(C[C@H]1O[C@@H](n2cnc3c(NC4CCCC4)nc(Cl)nc32)[C@H](O)[C@@H]1O)C(=O)CP(=O)(OCOC(=O)OCC(C)(C)C)OCOC(=O)OCC(C)(C)C` [AC] cannot be ordered by IC50: over 1 µM for the first, over 1 µM for the second.

`CC(C)OC(=O)OCOP(=O)(CC(=O)N(C)C[C@H]1O[C@@H](n2cnc3c(N[C@H]4CCOC4)nc(Cl)nc32)[C@H](O)[C@@H]1O)OCOC(=O)OC(C)C` [AM] and `CC(C)OC(=O)OCOP(=O)(CC(=O)N(C)C[C@H]1O[C@@H](n2cnc3c(NC4CCCC4)nc(Cl)nc32)[C@H](O)[C@@H]1O)OCOC(=O)OC(C)C` [W] cannot be ordered by IC50: over 1 µM for the first, over 1 µM for the second.

`CN(c1nc(Cl)nc2c1ncn2[C@@H]1O[C@H](CN(CC2CC2)C(=O)CP(=O)(O)O)[C@@H](O)[C@H]1O)C1CCCC1` [I] and `CCN(C[C@H]1O[C@@H](n2cnc3c(N(C)C4CCCC4)nc(Cl)nc32)[C@H](O)[C@@H]1O)C(=O)CP(=O)(O)O` [H] cannot be ordered by IC50: under 0.1 µM for the first, under 0.1 µM for the second.

`CC(C)OC(=O)[C@H](C)NP(=O)(CC(=O)N(C)C[C@H]1O[C@@H](n2cnc3c(NC4CCCC4)nc(Cl)nc32)[C@H](O)[C@@H]1OC(=O)C(C)C)Oc1ccccc1` (stereo partly drawn) [O] and `CC(C)OC(=O)[C@H](C)NP(=O)(CC(=O)N(C)C[C@H]1O[C@@H](n2cnc3c(NC4CCCC4)nc(Cl)nc32)[C@H](O)[C@@H]1O)Oc1ccccc1` (stereo partly drawn) [M] cannot be ordered by IC50: over 1 µM for the first, over 1 µM for the second.

`CN(C[C@H]1O[C@@H](n2cnc3c(NC4CCCC4)nc(Cl)nc32)[C@H](O)[C@@H]1O)C(=O)CP(=O)(O)OCOC(=O)C(C)(C)C` [AH] and `CN(C[C@H]1O[C@@H](n2cnc3c(NC4CCCC4)nc(Cl)nc32)[C@H](O)[C@@H]1O)C(=O)CP(=O)(O)OCOC(=O)OCC(C)(C)C` [AD] cannot be ordered by IC50: over 1 µM for the first, over 1 µM for the second.

`COC(=O)OCOP(=O)(CC(=O)N(C)C[C@H]1O[C@@H](n2cnc3c(NC4CCCC4)nc(Cl)nc32)[C@H](O)[C@@H]1O)OCOC(=O)OC` [AA] and `CCOC(=O)OCOP(=O)(CC(=O)N(C)C[C@H]1O[C@@H](n2cnc3c(NC4CCCC4)nc(Cl)nc32)[C@H](O)[C@@H]1O)OCOC(=O)OCC` [Y] cannot be ordered by IC50: over 1 µM for the first, over 1 µM for the second.

`O=C(CP(=O)(O)O)N(CC1CC1)C[C@H]1O[C@@H](n2cnc3c(NC4CCCC4)nc(Cl)nc32)[C@H](O)[C@@H]1O` [AI] and `CCN(C[C@H]1O[C@@H](n2cnc3c(NC4CCCC4)nc(Cl)nc32)[C@H](O)[C@@H]1O)C(=O)CP(=O)(O)O` [C] cannot be ordered by IC50: under 0.1 µM for the first, under 0.1 µM for the second.

Compared with `CC(C)N(C[C@H]1O[C@@H](n2cnc3c(NC4CCCC4)nc(Cl)nc32)[C@H](O)[C@@H]1O)C(=O)CP(=O)(O)O` [B], `O=C(CP(=O)(O)O)N(CCO)C[C@H]1O[C@@H](n2cnc3c(NC4CCCC4)nc(Cl)nc32)[C@H](O)[C@@H]1O` [F] is lower in IC50: 0.1 to 1 µM for the first, under 0.1 µM for the second.

Compared with `CN(C[C@H]1O[C@@H](n2cnc3c(N[C@H]4CCOC4)nc(Cl)nc32)[C@H](O)[C@@H]1O)C(=O)CP(=O)(O)O` [AL], `CCOC(=O)OCOP(=O)(O)CC(=O)N(C)C[C@H]1O[C@@H](n2cnc3c(N[C@H]4CCOC4)nc(Cl)nc32)[C@H](O)[C@@H]1O` [AQ] is higher in IC50: 0.1 to 1 µM for the first, over 1 µM for the second. The first is the more potent here.

`COCCOC(=O)OCOP(=O)(CC(=O)N(C)C[C@H]1O[C@@H](n2cnc3c(NC4CCCC4)nc(Cl)nc32)[C@H](O)[C@@H]1O)OCOC(=O)OCCOC` [AE] and `COCCOC(=O)OCOP(=O)(CC(=O)N(C)C[C@H]1O[C@@H](n2cnc3c(N[C@H]4CCOC4)nc(Cl)nc32)[C@H](O)[C@@H]1O)OCOC(=O)OCCOC` [AO] cannot be ordered by IC50: over 1 µM for the first, over 1 µM for the second.

`CN(C[C@H]1O[C@@H](n2cnc3c(NC4CCCC4)nc(Cl)nc32)[C@H](O)[C@@H]1O)C(=O)CP(=O)(O)Oc1ccccc1` [V] and `COC(=O)[C@H](C)NP(=O)(CC(=O)N(C)C[C@H]1O[C@@H](n2cnc3c(NC4CCCC4)nc(Cl)nc32)[C@H](O)[C@@H]1O)Oc1ccccc1` (stereo partly drawn) [N] cannot be ordered by IC50: over 1 µM for the first, over 1 µM for the second.

`O=C(CP(=O)(O)O)N(Cc1ccccc1)C[C@H]1O[C@@H](n2cnc3c(NC4CCCC4)nc(Cl)nc32)[C@H](O)[C@@H]1O` [D] and `O=C(O)CN(C[C@H]1O[C@@H](n2cnc3c(NC4CCCC4)nc(Cl)nc32)[C@H](O)[C@@H]1O)C(=O)CP(=O)(O)O` [E] cannot be ordered by IC50: under 0.1 µM for the first, under 0.1 µM for the second.

`CCOC(=O)OCOP(=O)(O)CC(=O)N(C)C[C@H]1O[C@@H](n2cnc3c(NC4CCCC4)nc(Cl)nc32)[C@H](O)[C@@H]1O` [Z] and `COC(=O)OCOP(=O)(O)CC(=O)N(C)C[C@H]1O[C@@H](n2cnc3c(NC4CCCC4)nc(Cl)nc32)[C@H](O)[C@@H]1O` [AB] cannot be ordered by IC50: over 1 µM for the first, over 1 µM for the second.

Compared with `CN(C[C@H]1O[C@@H](n2cnc3c(NC4CCCC4)nc(Cl)nc32)[C@@H](F)[C@@H]1O)C(=O)CP(=O)(O)O` [G], `CN(C[C@H]1O[C@@H](n2ncc3c(NC4CCCC4)nc(Cl)nc32)[C@H](O)[C@@H]1O)C(=O)CP(=O)(O)O` [J] is lower in IC50: over 1 µM for the first, 0.1 to 1 µM for the second. The second is the more potent here.

`CN(C[C@H]1O[C@@H](n2cnc3c(NC4CCCC4)nc(Cl)nc32)[C@H](O)[C@@H]1O)C(=O)CP1(=O)OCc2ccccc2O1` (stereo partly drawn) [T] and `CN(C[C@H]1O[C@@H](n2cnc3c(NC4CCCC4)nc(Cl)nc32)[C@H](O)[C@@H]1O)C(=O)CP1(=O)OCCC(c2cccc(Cl)c2)O1` (stereo partly drawn) [Q] cannot be ordered by IC50: over 1 µM for the first, over 1 µM for the second.

`CC(C)OC(=O)OCOP(=O)(O)CC(=O)N(C)C[C@H]1O[C@@H](n2cnc3c(NC4CCCC4)nc(Cl)nc32)[C@H](O)[C@@H]1O` [X] and `CC(C)OC(=O)OCOP(=O)(O)CC(=O)N(C)C[C@H]1O[C@@H](n2cnc3c(N[C@H]4CCOC4)nc(Cl)nc32)[C@H](O)[C@@H]1O` [AN] cannot be ordered by IC50: over 1 µM for the first, over 1 µM for the second.

`CC(C)OC(=O)[C@H](C)NP(=O)(CC(=O)N(C)C[C@H]1O[C@@H](n2cnc3c(NC4CCCC4)nc(Cl)nc32)[C@H](O)[C@@H]1O)N[C@@H](C)C(=O)OC(C)C` [Example P] and `CC(C)OC(=O)OCOP(=O)(CC(=O)N(CC1CC1)C[C@H]1O[C@@H](n2cnc3c(NC4CCCC4)nc(Cl)nc32)[C@H](O)[C@@H]1O)OCOC(=O)OC(C)C` [AJ] cannot be ordered by IC50: over 1 µM for the first, over 1 µM for the second.

`CN(C[C@H]1O[C@@H](n2cnc3c(NC4CCCC4)nc(Cl)nc32)[C@H](O)[C@@H]1O)C(=O)CP(=O)(Oc1ccccc1)Oc1ccccc1` [U] and `COCCOC(=O)OCOP(=O)(O)CC(=O)N(C)C[C@H]1O[C@@H](n2cnc3c(NC4CCCC4)nc(Cl)nc32)[C@H](O)[C@@H]1O` [AF] cannot be ordered by IC50: over 1 µM for the first, over 1 µM for the second.

`CN(C[C@H]1O[C@@H](n2cnc3c(N[C@H]4CCOC4)nc(Cl)nc32)[C@H](O)[C@@H]1O)C(=O)CP(=O)(O)OCOC(=O)OCC(C)(C)C` [AS] and `CN(C[C@H]1O[C@@H](n2cnc3c(N[C@H]4CCOC4)nc(Cl)nc32)[C@H](O)[C@@H]1O)C(=O)CP(=O)(OCOC(=O)OCC(C)(C)C)OCOC(=O)OCC(C)(C)C` [AR] cannot be ordered by IC50: over 1 µM for the first, over 1 µM for the second.

Going from `O=C(CP(=O)(O)O)N(CC1CC1)C[C@H]1O[C@@H](n2ncc3c(NC4CCCC4)nc(Cl)nc32)[C@H](O)[C@@H]1O` [K] to `CC(C)OC(=O)OCOP(=O)(O)CC(=O)N(CC1CC1)C[C@H]1O[C@@H](n2cnc3c(NC4CCCC4)nc(Cl)nc32)[C@H](O)[C@@H]1O` [AK], the IC50 rises from under 0.1 µM to over 1 µM.

Work on `CCOC(=O)OCOP(=O)(CC(=O)N(C)C[C@H]1O[C@@H](n2cnc3c(N[C@H]4CCOC4)nc(Cl)nc32)[C@H](O)[C@@H]1O)OCOC(=O)OCC` [AP] yielded an IC50 of over 1 µM.
